According to ChEMBL document CHEMBL4354807, “Natural Product Albiziabioside A Conjugated with Pyruvate Dehydrogenase Kinase Inhibitor Dichloroacetate To Induce Apoptosis-Ferroptosis-M2-TAMs Polarization for Combined Cancer Therapy” (J Med Chem, 2019):
Activity calls are given as the source filed them. The calls are words filed in the database; no cut-off is given here.

Experiments:
[1] = test system: MCF7; test: Induction of apoptosis in human MCF7 cells assessed as necrotic cells at 10 uM after 24 hrs by Annexin V-FITC/propidium iodide staining-based flow cytometric analysis (reference value: 0.10 %); format: functional
[2] = test system: MCF7; test: Induction of metabolic reversal from aerobic glycolysis to oxidative phosphorylation in human MCF7 cells assessed as decrease in extracellular acidification rate at 10 uM pretreated for 4 hrs followed by glucose addition after 25 mins followed by subsequent addition of oligomycin A after 50 mins followed by 2-DG addition after 80 mins by seahorse XF24 extracellular flux analyzer assay; format: functional, cell-based
[3] = test system: 4T1; test: Inhibition of glycolysis in mouse 4T1 cells expressing PDK assessed as reduction in intracellular lactate level at 10 uM after 6 hrs by microplate reader assay; format: functional, cell-based
[4] = test system: MCF7; test: Induction of mitochondrial dysfunction in human MCF7 cells assessed as cell population with intact mitochondrial membrane potential at 10 uM after 24 hrs by JC1 staining-based FACScalibur flow cytometry analysis (reference value: 97%); format: functional
[5] = test system: MCF7; test: Induction of ROS generation in human MCF7 cells assessed as ROS level at 10 uM after 24 hrs by DCFDA-fluorescence based flow cytometry (reference value: 6.57 %); format: functional
[6] = test system: MCF7; test: Induction of metabolic reversal from aerobic glycolysis to oxidative phosphorylation in human MCF7 cells assessed as […] at 10 uM pretreated for 6 hrs followed by oligomycin A addition after 25 mins followed by subsequent addition of FCCP after 50 mins followed by antimycin/rotenone addition after 80 mins by seahorse XF24 extracellular flux analyzer assay; format: functional, cell-based
[7] = Toxicity in BALB/c nude mouse xenografted with human MCF7 cells assessed as effect on body weight at 10 mg/kg, iv administered every 2 days for 2 weeks measured after 14 days; format: organism-based; conditions: in vivo, 336 h
[8] = test system: MCF7; test: Induction of apoptosis in human MCF7 cells assessed as late apoptotic cells at 10 uM after 24 hrs by Annexin V-FITC/propidium iodide staining-based flow cytometric analysis (reference value: 2.97 %); format: functional
[9] = test system: MCF7; test: Induction of metabolic reversal from aerobic glycolysis to oxidative phosphorylation in human MCF7 cells assessed as […] at 10 uM pretreated for 4 hrs followed by glucose addition after 25 mins by seahorse XF24 extracellular flux analyzer assay; format: functional, cell-based
[10] = test system: MCF7; test: Antitumor activity against human MCF7 cells xenografted in BALB/c nude mouse assessed as tumor growth inhibition at 10 mg/kg, iv administered every two days for two weeks measured after 14 days; format: functional, organism-based
[11] = test system: MCF7; test: Induction of metabolic reversal from aerobic glycolysis to oxidative phosphorylation in human MCF7 cells assessed as increase in extracellular acidification rate at 10 uM pretreated for 4 hrs followed by glucose addition after 25 mins followed by subsequent addition of oligomycin A after 50 mins by seahorse XF24 extracellular flux analyzer assay; format: functional, cell-based
[12] = test system: HCT-116; test: Anticancer activity against human HCT116 cells expressing PDK assessed as reduction in cell viability after 72 hrs by MTT assay; format: functional, cell-based; conditions: HCT-116, 72 h
[13] = test system: MCF7; test: Induction of mitochondrial dysfunction in human MCF7 cells assessed as cell population with mitochondrial membrane potential collapse at 10 uM after 24 hrs by JC1 staining-based FACScalibur flow cytometry analysis (reference value: 2.74 %); format: functional
[14] = Toxicity in BALB/c nude mouse xenografted with human MCF7 cells assessed as mouse death at 10 mg/kg, iv administered every 2 days for 2 weeks measured after 14 days; format: organism-based; conditions: in vivo, 336 h
[15] = test system: 4T1; test: Anticancer activity against mouse 4T1 cells expressing PDK assessed as reduction in cell viability after 72 hrs by MTT assay; format: functional, cell-based; conditions: 4T1, 72 h
[16] = test system: MCF7; test: Induction of apoptosis in human MCF7 cells assessed as viable cells at 10 uM after 24 hrs by Annexin V-FITC/propidium iodide staining-based flow cytometric analysis (reference value: 93.39 %); format: functional; conditions: MCF7, 24 h, read-out: Activity
[17] = test system: A-375; test: Anticancer activity against human A375 cells expressing PDK assessed as reduction in cell viability after 72 hrs by MTT assay; format: functional, cell-based; conditions: A-375, 72 h
[18] = test system: MCF7; test: Induction of apoptosis in human MCF7 cells assessed as early apoptotic cells at 10 uM after 24 hrs by Annexin V-FITC/propidium iodide staining-based flow cytometric analysis (reference value: 3.53 %); format: functional
[19] = test system: MCF7; test: Inhibition of glycolysis in human MCF7 cells assessed as reduction in intracellular lactate level at 10 uM after 6 hrs by microplate reader assay; format: functional, cell-based
[20] = Cytotoxicity against human HBMEC cells assessed as reduction in cell viability after 72 hrs by MTT assay; format: cell-based
[21] = test system: MCF7; test: Anticancer activity against human MCF7 cells overexpressing PDK assessed as reduction in cell viability after 72 hrs by MTT assay; format: functional, cell-based; conditions: MCF7, 72 h
[22] = test system: L02; test: Cytotoxicity against human LO2 cells assessed as reduction in cell viability after 72 hrs by MTT assay; format: cell-based; conditions: L02, 72 h
[23] = test system: MCF7; test: Cytotoxicity against human MCF7 cells assessed as cell death at 10 uM pretreated with Z-VAD-fmk followed by compound addition by MTT assay; format: functional, cell-based
[24] = test system: MCF7; test: Inhibition of glycolysis in human MCF7 cells assessed as reduction in extracellular lactate level at 10 uM after 6 hrs by microplate reader assay; format: functional, cell-based
[25] = biological target: [Pyruvate dehydrogenase (acetyl-transferring)] kinase isozyme 1, mitochondrial (Homo sapiens) (UniProt Q15118); test: Inhibition of PDK1 (unknown origin) expressed in human MCF7 cells using PDK tide as substrate measured after 90 mins in presence of ATP by ADP-Glo luminescent kinase assay
[26] = test system: 4T1; test: Inhibition of glycolysis in mouse 4T1 cells expressing PDK assessed as reduction in extracellular lactate level at 10 uM after 6 hrs by microplate reader assay; format: functional, cell-based
[27] = test system: A-375; test: Cytotoxicity against human A375 cells assessed as reduction in cell viability after 72 hrs by MTT assay; format: functional, cell-based; conditions: A-375, 72 h
[28] = test system: MCF7; test: Induction of apoptosis in human MCF7 cells assessed as late apoptotic cells at 30 uM after 24 hrs by Annexin V-FITC/propidium iodide staining-based flow cytometric analysis (reference value: 2.97 %); format: functional
[29] = test system: MCF7; test: Inhibition of glycolysis in human MCF7 cells assessed as reduction in extracellular lactate level at 30 uM after 6 hrs by microplate reader assay; format: functional, cell-based
[30] = test system: MCF7; test: Cytotoxicity against human MCF7 cells assessed as cell death at 30 uM pretreated with Z-VAD-fmk followed by compound addition by MTT assay; format: functional, cell-based
[31] = Toxicity in BALB/c nude mouse xenografted with human MCF7 cells assessed as mouse death at 30 mg/kg, iv administered every 2 days for 2 weeks measured after 14 days; format: organism-based; conditions: in vivo, 336 h
[32] = test system: MCF7; test: Downregulation of PDK expression in human MCF7 cells at 2.5 to 10 uM after 48 hrs by Western blot analysis; format: functional, cell-based
[33] = test system: 4T1; test: Inhibition of glycolysis in mouse 4T1 cells expressing PDK assessed as reduction in intracellular lactate level at 30 uM after 6 hrs by microplate reader assay; format: functional, cell-based
[34] = test system: MCF7; test: Induction of metabolic reversal from aerobic glycolysis to oxidative phosphorylation in human MCF7 cells assessed as […] at 30 uM pretreated for 4 hrs followed by glucose addition after 25 mins by seahorse XF24 extracellular flux analyzer assay; format: functional, cell-based
[35] = test system: MCF7; test: Induction of mitochondrial dysfunction in human MCF7 cells assessed as cell population with intact mitochondrial membrane potential at 30 uM after 24 hrs by JC1 staining-based FACScalibur flow cytometry analysis (reference value: 97%); format: functional
[36] = test system: MCF7; test: Induction of mitochondrial dysfunction in human MCF7 cells assessed as cell population with mitochondrial membrane potential collapse at 30 uM after 24 hrs by JC1 staining-based FACScalibur flow cytometry analysis (reference value: 2.74 %); format: functional
[37] = Toxicity in BALB/c nude mouse xenografted with human MCF7 cells assessed as effect on body weight at 30 mg/kg, iv administered every 2 days for 2 weeks measured after 14 days; format: organism-based; conditions: in vivo, 336 h
[38] = test system: MCF7; test: Induction of metabolic reversal from aerobic glycolysis to oxidative phosphorylation in human MCF7 cells assessed as […] at 30 uM pretreated for 6 hrs followed by oligomycin A addition after 25 mins followed by subsequent addition of FCCP after 50 mins followed by antimycin/rotenone addition after 80 mins by seahorse XF24 extracellular flux analyzer assay; format: functional, cell-based
[39] = test system: MCF7; test: Induction of ROS generation in human MCF7 cells assessed as ROS level at 30 uM after 24 hrs by DCFDA-fluorescence based flow cytometry (reference value: 6.57 %); format: functional
[40] = test system: 4T1; test: Inhibition of glycolysis in mouse 4T1 cells expressing PDK assessed as reduction in extracellular lactate level at 30 uM after 6 hrs by microplate reader assay; format: functional, cell-based
[41] = test system: MCF7; test: Induction of apoptosis in human MCF7 cells assessed as early apoptotic cells at 30 uM after 24 hrs by Annexin V-FITC/propidium iodide staining-based flow cytometric analysis (reference value: 3.53 %); format: functional
[42] = test system: MCF7; test: Induction of apoptosis in human MCF7 cells assessed as viable cells at 30 uM after 24 hrs by Annexin V-FITC/propidium iodide staining-based flow cytometric analysis (reference value: 93.39 %); format: functional; conditions: MCF7, 24 h, read-out: Activity
[43] = test system: MCF7; test: Antitumor activity against human MCF7 cells xenografted in BALB/c nude mouse assessed as tumor growth inhibition at 30 mg/kg, iv administered every two days for two weeks measured after 14 days; format: functional, organism-based
[44] = test system: MCF7; test: Induction of metabolic reversal from aerobic glycolysis to oxidative phosphorylation in human MCF7 cells assessed as increase in extracellular acidification rate at 30 uM pretreated for 4 hrs followed by glucose addition after 25 mins followed by subsequent addition of oligomycin A after 50 mins by seahorse XF24 extracellular flux analyzer assay; format: functional, cell-based
[45] = test system: MCF7; test: Induction of apoptosis in human MCF7 cells assessed as necrotic cells at 30 uM after 24 hrs by Annexin V-FITC/propidium iodide staining-based flow cytometric analysis (reference value: 0.10 %); format: functional
[46] = test system: MCF7; test: Induction of metabolic reversal from aerobic glycolysis to oxidative phosphorylation in human MCF7 cells assessed as decline in extracellular acidification rate at 30 uM pretreated for 4 hrs followed by glucose addition after 25 mins followed by subsequent addition of oligomycin A after 50 mins followed by 2-DG addition after 80 mins by seahorse XF24 extracellular flux analyzer assay; format: functional, cell-based
[47] = test system: MCF7; test: Inhibition of glycolysis in human MCF7 cells assessed as reduction in intracellular lactate level at 30 uM after 6 hrs by microplate reader assay; format: functional, cell-based

SMILES: CC(=O)N[C@H]1[C@H](O[C@H]2CC[C@]3(C)[C@H]4CC=C5[C@@H]6CC(C)(C)CC[C@]6(C(=O)O)CC[C@@]5(C)[C@]4(C)CC[C@H]3C2(C)C)O[C@H](CO[C@@H]2OC[C@H](O)[C@H](O)[C@H]2O)[C@@H](O)[C@@H]1O
- Activity [1]: 2.07%
- Activity [2]: Active
- inhibition [3]: inactive
- Activity [4]: 72.69%
- Activity [5]: 26.43%
- Activity [6]: Active
- Activity [7]: Non-Toxic
- Activity [8]: 9.07%
- Activity [9]: Active
- Activity [10]: Active
- Activity [11]: Active
- IC50 [12]: 21.6 µM
- Activity [13]: 25.86%
- Activity [14]: Non-Toxic
- IC50 [15]: 16.4 µM
- viability at 10 µM [16]: 70.4%
- IC50 [17]: 5.73 µM
- Activity [18]: 18.5%
- inhibition [19]: inactive
- IC50 [20]: 37.1 µM
- IC50 [21]: 20.4 µM
- IC50 [22]: 33.2 µM
- Activity [23]: inactive
- inhibition [24]: inactive
- inhibition [25]: inactive
- inhibition [26]: inactive
- IC50 [27]: 5.47 µM

SMILES: O=c1[nH]cc(F)c(=O)[nH]1 [FLUOROURACIL]
- Activity [7]: Non-Toxic
- Activity [10]: Active
- IC50 [12]: 26.1 µM
- Activity [14]: Non-Toxic
- IC50 [15]: 28.1 µM
- IC50 [17]: 21.1 µM
- IC50 [20]: 27.3 µM
- IC50 [22]: 29.5 µM

SMILES: CC1(C)CC[C@]2(C(=O)O)CC[C@]3(C)C(=CC[C@@H]4[C@@]5(C)CC[C@H](O[C@@H]6O[C@H](CO[C@@H]7OC[C@H](O)[C@H](O)[C@H]7O)[C@@H](O)[C@H](O)[C@H]6NC(=O)CCl)C(C)(C)[C@@H]5CC[C@]43C)[C@@H]2C1
- inhibition [25]: inactive

SMILES: O=C([O-])C(Cl)Cl.[Na+] [SODIUM DICHLOROACETATE]
- Activity [28]: 5.86%
- inhibition [29]: inactive
- Activity [30]: inactive
- Activity [31]: Non-Toxic
- Activity [32]: inactive
- inhibition [33]: inactive
- IC50 [12]: > 100 µM
- IC50 [15]: > 100 µM
- Activity [34]: Active
- Activity [35]: 84.95%
- IC50 [17]: > 100 µM
- Activity [36]: 14.63%
- IC50 [20]: > 100 µM
- Activity [37]: Non-Toxic
- Activity [38]: Active
- IC50 [21]: > 100 µM
- Activity [39]: 15.13%
- inhibition [40]: inactive
- Activity [41]: 12.57%
- IC50 [22]: > 100 µM
- viability at 30 µM [42]: 79.9%
- Activity [43]: Active
- Activity [44]: Active
- Activity [45]: 1.67%
- Activity [46]: Active
- inhibition [25]: Active
- inhibition [47]: inactive
